# Reference: article PMC7486443, “Generation of Phenothiazine with Potent Anti-TLK1 Activity for Prostate Cancer Therapy” (iScience, 2020)
# What was measured:
# Assay in all cases: biochemical
# Set-up in all cases: DiscoverX KINOMEscan scanMAX competition binding panel, single concentration, percent of control; remaining binding: dose or concentration left out as unconfirmed
# Settings in all cases: KINOMEscan binding, percent of control; read-out: Table S4_SCANMAX REPORT - related to Fig. 1 / Percent Control
# [1] = target: T1, ABL1(H396P)-nonphosphorylated (Homo sapiens, UniProt P00519, H396P)
# T1 construct: nonphosphorylated
# ABL1-phosphorylated = target: T2, ABL1-phosphorylated (Homo sapiens, UniProt P00519)
# T2 construct: phosphorylated
# CDK7 = CDK7 (Homo sapiens, UniProt P50613)
# CDK8 = CDK8 (Homo sapiens, UniProt P49336)
# CSNK1G3 = CSNK1G3 (Homo sapiens, UniProt Q9Y6M4)
# CTK = target: T3, CTK (Homo sapiens, UniProt P42679)
# T3 construct: gene MATK
# DCAMKL2 = target: T4, DCAMKL2 (Homo sapiens, UniProt Q8N568)
# T4 construct: gene DCLK2
# FGFR1 = FGFR1 (Homo sapiens, UniProt P11362)
# GCN2(Kin.Dom.2,S808G) = target: T5, GCN2(Kin.Dom.2,S808G) (Homo sapiens, UniProt Q9P2K8, S808G)
# T5 construct: gene EIF2AK4; Kin.Dom.2
# HIPK3 = HIPK3 (Homo sapiens, UniProt Q9H422)
# KIT(D816V) = KIT(D816V) (Homo sapiens, UniProt P10721, D816V)
# MEK1 = target: T6, MEK1 (Homo sapiens, UniProt Q02750)
# T6 construct: gene MAP2K1
# NEK6 = NEK6 (Homo sapiens, UniProt Q9HC98)
# NIM1 = target: T7, NIM1 (Homo sapiens, UniProt Q8IY84)
# T7 construct: gene NIM1K
# PIK3CA(I800L) = PIK3CA(I800L) (Homo sapiens, UniProt P42336, I800L)
# PRKD3 = PRKD3 (Homo sapiens, UniProt O94806)
# PRKX = PRKX (Homo sapiens, UniProt P51817)
# SRPK3 = SRPK3 (Homo sapiens, UniProt Q9UPE1)
# T6 sequence (Q02750 whole entry): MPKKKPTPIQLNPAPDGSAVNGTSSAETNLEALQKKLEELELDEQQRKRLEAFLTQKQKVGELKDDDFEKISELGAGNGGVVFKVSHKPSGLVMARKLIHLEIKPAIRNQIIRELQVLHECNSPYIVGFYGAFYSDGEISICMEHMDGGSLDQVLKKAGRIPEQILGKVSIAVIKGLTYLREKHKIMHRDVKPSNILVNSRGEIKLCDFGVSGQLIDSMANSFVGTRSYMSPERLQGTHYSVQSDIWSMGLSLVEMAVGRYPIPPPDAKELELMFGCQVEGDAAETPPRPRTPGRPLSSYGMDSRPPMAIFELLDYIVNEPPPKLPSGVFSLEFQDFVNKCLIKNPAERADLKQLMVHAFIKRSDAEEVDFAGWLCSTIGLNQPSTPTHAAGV
# CDK8, sequence (P49336 whole entry): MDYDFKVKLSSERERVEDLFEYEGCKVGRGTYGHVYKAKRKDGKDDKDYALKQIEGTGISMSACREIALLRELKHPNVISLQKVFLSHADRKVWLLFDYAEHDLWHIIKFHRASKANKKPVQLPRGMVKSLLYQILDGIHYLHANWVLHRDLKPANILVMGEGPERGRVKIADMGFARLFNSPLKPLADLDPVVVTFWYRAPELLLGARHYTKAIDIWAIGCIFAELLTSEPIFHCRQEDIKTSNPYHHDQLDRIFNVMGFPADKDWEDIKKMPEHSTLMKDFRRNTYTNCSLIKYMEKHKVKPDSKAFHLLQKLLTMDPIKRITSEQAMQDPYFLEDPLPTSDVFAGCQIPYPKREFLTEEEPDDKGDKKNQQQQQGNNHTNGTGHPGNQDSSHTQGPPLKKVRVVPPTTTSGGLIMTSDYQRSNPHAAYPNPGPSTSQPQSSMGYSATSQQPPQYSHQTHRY
# FGFR1, sequence (P11362 whole entry): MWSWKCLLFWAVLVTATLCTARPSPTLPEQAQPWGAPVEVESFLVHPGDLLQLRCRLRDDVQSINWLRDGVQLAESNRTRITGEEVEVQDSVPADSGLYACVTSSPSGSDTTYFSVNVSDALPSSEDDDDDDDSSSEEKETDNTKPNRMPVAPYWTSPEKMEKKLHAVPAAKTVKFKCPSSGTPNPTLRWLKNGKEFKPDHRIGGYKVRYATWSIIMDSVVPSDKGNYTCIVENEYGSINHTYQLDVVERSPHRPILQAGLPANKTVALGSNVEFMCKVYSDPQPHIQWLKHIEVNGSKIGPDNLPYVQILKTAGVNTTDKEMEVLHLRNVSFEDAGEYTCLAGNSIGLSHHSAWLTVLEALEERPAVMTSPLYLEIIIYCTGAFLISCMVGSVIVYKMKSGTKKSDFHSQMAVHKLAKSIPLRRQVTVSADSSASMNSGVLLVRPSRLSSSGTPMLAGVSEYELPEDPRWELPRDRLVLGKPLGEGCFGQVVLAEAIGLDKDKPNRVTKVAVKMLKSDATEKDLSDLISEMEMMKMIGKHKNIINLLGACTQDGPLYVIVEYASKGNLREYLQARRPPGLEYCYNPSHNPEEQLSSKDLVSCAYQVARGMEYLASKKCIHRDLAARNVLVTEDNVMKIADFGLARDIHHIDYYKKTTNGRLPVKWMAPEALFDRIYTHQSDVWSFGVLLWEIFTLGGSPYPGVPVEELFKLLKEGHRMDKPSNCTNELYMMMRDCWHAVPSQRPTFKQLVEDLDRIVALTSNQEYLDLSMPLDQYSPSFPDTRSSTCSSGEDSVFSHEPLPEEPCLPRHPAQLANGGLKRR
# PRKX, sequence (P51817 whole entry): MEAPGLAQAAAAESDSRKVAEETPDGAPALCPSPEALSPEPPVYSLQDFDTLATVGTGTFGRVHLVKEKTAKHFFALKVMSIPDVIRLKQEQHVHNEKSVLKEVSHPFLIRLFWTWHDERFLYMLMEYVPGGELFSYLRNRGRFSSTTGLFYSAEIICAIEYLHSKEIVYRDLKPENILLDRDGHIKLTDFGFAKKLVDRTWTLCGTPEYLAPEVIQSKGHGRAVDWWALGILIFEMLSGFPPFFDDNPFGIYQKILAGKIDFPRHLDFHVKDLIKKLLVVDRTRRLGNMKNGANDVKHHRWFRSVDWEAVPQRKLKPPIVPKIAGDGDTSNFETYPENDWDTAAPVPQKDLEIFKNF
# CDK7, sequence (P50613 whole entry): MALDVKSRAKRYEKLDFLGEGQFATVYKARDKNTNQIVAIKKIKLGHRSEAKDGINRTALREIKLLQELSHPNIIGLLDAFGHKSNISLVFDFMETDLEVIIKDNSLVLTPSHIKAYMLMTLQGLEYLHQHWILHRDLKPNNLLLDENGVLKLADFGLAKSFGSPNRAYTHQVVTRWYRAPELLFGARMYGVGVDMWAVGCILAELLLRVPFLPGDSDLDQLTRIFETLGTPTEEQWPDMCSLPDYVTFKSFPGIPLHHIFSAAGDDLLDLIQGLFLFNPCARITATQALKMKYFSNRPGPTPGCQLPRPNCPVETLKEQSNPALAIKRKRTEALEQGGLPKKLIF
# T3 sequence (P42679 whole entry): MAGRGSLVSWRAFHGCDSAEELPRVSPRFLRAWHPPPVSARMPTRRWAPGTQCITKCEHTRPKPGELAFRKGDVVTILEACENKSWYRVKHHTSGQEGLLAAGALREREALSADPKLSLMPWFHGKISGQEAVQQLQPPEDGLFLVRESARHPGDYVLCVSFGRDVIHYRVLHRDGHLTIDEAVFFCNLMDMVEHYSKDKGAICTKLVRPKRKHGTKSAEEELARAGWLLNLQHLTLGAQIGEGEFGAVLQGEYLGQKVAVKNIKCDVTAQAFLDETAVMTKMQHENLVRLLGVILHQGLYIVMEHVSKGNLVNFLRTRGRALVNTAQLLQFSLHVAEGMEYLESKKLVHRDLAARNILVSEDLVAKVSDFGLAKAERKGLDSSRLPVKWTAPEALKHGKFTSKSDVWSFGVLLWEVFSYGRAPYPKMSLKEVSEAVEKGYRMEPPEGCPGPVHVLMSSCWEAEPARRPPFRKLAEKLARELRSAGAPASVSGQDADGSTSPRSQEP
# PRKD3, sequence (O94806 whole entry): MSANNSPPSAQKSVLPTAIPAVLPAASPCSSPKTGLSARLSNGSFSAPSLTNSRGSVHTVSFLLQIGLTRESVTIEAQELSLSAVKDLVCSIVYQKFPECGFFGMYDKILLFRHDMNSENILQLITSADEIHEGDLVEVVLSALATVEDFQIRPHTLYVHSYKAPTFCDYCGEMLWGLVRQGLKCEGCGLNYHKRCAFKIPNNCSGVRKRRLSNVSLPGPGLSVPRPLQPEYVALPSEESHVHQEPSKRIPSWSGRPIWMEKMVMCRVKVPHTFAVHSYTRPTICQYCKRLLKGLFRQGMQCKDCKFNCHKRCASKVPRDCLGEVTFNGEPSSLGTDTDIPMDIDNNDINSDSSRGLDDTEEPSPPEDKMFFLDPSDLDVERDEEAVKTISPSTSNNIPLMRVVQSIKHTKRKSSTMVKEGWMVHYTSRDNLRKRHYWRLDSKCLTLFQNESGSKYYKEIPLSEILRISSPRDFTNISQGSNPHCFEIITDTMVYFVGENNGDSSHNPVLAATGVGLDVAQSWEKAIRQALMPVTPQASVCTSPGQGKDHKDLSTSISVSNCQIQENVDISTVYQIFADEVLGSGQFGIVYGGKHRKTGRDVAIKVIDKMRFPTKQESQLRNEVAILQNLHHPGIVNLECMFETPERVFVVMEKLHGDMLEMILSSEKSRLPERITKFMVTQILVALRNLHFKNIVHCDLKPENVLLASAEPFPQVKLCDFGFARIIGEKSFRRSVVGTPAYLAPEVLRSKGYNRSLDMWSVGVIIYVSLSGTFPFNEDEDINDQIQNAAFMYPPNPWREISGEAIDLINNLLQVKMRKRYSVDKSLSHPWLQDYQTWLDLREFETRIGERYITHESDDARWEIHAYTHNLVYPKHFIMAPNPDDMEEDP
# CSNK1G3, sequence (Q9Y6M4 whole entry): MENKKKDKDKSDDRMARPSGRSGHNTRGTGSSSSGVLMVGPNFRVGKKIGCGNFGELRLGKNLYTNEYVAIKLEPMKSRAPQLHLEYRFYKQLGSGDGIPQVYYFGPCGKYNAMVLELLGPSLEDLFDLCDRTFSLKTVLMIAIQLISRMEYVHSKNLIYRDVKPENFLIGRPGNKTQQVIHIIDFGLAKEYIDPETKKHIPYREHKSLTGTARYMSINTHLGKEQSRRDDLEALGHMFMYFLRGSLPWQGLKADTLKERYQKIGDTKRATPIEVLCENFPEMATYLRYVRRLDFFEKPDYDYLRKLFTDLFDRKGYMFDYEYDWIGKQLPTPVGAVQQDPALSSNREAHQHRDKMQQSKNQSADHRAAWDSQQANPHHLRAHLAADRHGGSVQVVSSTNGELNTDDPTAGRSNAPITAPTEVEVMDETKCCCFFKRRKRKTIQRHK
# T4 sequence (Q8N568 whole entry): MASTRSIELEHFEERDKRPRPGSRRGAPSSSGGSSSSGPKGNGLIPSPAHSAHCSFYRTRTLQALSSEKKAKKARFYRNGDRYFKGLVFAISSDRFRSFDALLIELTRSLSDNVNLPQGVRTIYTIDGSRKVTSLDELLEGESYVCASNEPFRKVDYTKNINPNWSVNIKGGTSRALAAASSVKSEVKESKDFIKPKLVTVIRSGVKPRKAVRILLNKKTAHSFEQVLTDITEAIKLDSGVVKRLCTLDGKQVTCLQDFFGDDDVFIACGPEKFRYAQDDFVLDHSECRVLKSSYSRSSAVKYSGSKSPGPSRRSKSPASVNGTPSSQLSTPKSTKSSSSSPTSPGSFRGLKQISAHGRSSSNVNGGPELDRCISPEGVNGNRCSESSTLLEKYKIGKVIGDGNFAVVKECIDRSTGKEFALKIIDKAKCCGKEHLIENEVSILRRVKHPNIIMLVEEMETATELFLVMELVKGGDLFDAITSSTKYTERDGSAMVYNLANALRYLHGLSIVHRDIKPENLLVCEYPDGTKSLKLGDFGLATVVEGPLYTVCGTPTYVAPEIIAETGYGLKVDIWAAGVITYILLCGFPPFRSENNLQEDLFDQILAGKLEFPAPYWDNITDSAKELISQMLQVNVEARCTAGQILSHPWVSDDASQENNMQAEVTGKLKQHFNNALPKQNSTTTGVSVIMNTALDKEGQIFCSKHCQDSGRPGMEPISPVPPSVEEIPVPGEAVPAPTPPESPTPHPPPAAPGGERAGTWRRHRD
compound,measurement,setting,value
c1ccc2c(c1)Sc1ccccc1N2CCN1CCOCC1 [J54],remaining binding,[1],86%
same,remaining binding,ABL1-phosphorylated,71%
same,remaining binding,CDK7,74%
same,remaining binding,CDK8,100%
same,remaining binding,CSNK1G3,100%
same,remaining binding,CTK,95%
same,remaining binding,DCAMKL2,100%
same,remaining binding,FGFR1,94%
same,remaining binding,"GCN2(Kin.Dom.2,S808G)",100%
same,remaining binding,HIPK3,100%
same,remaining binding,KIT(D816V),96%
same,remaining binding,MEK1,100%
same,remaining binding,NEK6,92%
same,remaining binding,NIM1,100%
same,remaining binding,PIK3CA(I800L),99%
same,remaining binding,PRKD3,100%
same,remaining binding,PRKX,91%
same,remaining binding,SRPK3,100%
